Experimental data from patent US12312347B2, “Azaindole derivative and use thereof as FGFR and C-Met inhibitor” (Wuxi Life Fountain Biotech Co., Ltd, priority 2018, dated 2025).
Where a name gives a salt, the structure may show the parent alone.

Key:
human c-Met = molecular target: T1, human c-Met (Homo sapiens, UniProt P08581); experiment: 33P isotope-labeled kinase activity test, c-Met; format: biochemical; details: ATP 10 μM
T1 construct: purchased Invitrogen PV3143
Protocol: (§1) The inhibitory activities of the tested compounds on human FGFR1, FGFR4, and c-Met were evaluated by the IC50 values measured using ^33P isotope-labeled kinase activity test (Reaction Biology Corp).
(§2) Buffer condition: 20 mM Hepes (pH 7.5), 10 mM MgCl2, 1 mM EGTA, 0.02% Brij35, 0.02 mg/mL BSA, 0.1 mM Na3VO4, 2 mM DTT, 1% DMSO.
(§3) Test procedure: The test compounds were dissolved in DMSO at room temperature and formulated to be 10 mM solutions for later use. The substrates were dissolved in freshly prepared buffer, and kinases to be tested were added and mixed well. The test compounds dissolved in DMSO were added to the above mixed reaction solutions by acoustic technique (Echo 550). The concentration of the compound in reaction solution was 1 μM, […], 3.91 nM, 0.977 nM, 0.244 nM, 0.061 nM, 0.0153 nM, 0.00381 nM or 10 μM, 2.50 μM, 0.62 μM, 0.156 μM, 39.1 nM, 9.8 nM, 2.4 nM, 0.61 nM, 0.15 nM, 0.038 nM. After incubation for 15 min, ^33P-ATP (activity 0.01 μCi/μL, corresponding concentrations are listed in Table 1) was added to start the reaction. Supplier item number, batch number, as well as the concentration information in the reaction solution of FGFR1, FGFR4, c-Met and substrates thereof are listed in Table 1. […] The kinase activity data are expressed by comparison between the kinase activity in the test compound group and the kinase activity in the blank group (containing DMSO only). IC50 values were obtained by curve fitting with Prism4 software (GraphPad).

human FGFR4 = molecular target: T2, human FGFR4 (Homo sapiens, UniProt P22455); experiment: 33P isotope-labeled kinase activity test, FGFR4; format: biochemical; details: ATP 100 μM
T2 construct: purchased Invitrogen P3054
Protocol: as §1, §2, §3

T1 sequence (P08581 25-1390): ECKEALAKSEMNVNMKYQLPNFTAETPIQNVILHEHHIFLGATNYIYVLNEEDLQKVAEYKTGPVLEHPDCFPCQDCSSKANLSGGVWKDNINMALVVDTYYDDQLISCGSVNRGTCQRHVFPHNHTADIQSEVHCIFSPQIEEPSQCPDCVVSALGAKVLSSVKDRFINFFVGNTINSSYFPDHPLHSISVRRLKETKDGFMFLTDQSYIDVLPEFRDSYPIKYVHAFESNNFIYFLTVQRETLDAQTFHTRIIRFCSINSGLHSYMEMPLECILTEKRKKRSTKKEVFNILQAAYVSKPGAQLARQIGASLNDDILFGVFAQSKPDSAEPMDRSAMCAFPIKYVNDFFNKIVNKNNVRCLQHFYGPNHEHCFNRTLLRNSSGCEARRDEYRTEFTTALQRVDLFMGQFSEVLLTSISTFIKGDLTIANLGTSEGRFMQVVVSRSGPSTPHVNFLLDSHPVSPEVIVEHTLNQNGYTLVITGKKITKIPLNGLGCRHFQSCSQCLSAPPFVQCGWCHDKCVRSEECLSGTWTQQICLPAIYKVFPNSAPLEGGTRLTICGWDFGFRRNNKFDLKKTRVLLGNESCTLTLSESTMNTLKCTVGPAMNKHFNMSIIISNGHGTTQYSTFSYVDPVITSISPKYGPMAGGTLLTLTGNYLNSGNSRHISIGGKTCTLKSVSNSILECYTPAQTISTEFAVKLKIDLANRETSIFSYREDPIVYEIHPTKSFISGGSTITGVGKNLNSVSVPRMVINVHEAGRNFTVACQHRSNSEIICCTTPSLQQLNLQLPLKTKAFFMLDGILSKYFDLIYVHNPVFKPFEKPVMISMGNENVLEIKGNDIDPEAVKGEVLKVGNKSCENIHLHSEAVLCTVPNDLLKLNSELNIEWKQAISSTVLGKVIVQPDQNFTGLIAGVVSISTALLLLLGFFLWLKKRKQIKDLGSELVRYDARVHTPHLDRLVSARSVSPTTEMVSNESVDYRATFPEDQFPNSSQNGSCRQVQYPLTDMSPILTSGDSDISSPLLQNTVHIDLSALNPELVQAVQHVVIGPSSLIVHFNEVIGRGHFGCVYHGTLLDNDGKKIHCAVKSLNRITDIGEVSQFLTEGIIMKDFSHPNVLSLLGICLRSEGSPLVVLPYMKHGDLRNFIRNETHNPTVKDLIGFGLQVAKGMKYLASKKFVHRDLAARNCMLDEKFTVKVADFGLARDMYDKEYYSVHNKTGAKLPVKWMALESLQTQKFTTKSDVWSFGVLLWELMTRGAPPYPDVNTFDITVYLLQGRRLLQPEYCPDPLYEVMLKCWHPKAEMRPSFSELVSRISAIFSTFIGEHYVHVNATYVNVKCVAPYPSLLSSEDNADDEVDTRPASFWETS
T2 sequence (P22455 22-802): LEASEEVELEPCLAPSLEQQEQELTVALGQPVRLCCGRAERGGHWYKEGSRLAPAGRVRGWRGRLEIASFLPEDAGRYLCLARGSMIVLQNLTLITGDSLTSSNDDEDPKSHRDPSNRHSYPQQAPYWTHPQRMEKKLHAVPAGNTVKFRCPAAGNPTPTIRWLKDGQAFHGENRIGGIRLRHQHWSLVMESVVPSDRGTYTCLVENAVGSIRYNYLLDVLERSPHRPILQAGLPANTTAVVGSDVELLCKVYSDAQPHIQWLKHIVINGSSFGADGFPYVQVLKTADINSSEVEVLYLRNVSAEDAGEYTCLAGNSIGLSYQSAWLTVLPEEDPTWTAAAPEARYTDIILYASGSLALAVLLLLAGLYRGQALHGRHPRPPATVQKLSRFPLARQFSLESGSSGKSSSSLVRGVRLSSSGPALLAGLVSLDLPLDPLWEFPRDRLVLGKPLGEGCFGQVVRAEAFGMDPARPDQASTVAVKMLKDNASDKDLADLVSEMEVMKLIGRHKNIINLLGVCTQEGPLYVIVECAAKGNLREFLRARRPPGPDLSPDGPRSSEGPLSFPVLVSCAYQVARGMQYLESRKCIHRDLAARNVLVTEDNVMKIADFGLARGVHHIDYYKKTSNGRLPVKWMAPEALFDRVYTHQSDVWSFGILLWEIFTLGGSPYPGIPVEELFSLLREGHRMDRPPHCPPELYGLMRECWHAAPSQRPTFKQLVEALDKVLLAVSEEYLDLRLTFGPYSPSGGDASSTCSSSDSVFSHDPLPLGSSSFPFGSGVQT

| Structure (SMILES) | IC50 (human c-Met) | IC50 (human FGFR4) |
| --- | --- | --- |
| CC(c1c(Cl)ccc(F)c1Cl)c1c[nH]c2ncc(-c3cnn(CCO)c3)cc12 (single isomer, unassigned) [Comparative Compound 1a, reference compound] | 0.758 µM | > 10 µM |
| CC(c1c(Cl)ccc(F)c1Cl)c1c[nH]c2ncc(-c3cnn(CCO)c3)cc12 (stereo not drawn) [Comparative Compound 1b, reference compound] | 0.0111 µM | 5.09 µM |
| COc1cc(OC)c(F)c(Cc2c[nH]c3ncc(-c4cn(C5CCNCC5)nc4C)cc23)c1F [Embodiment 32] | 0.0062 µM | 0.0135 µM |
| CCN1CCC(n2cc(-c3cnc4[nH]cc(Cc5c(F)ccc(OC)c5F)c4c3)cn2)CC1 [Embodiment 38] | 0.0091 µM | 0.599 µM |
| CCN1CCC(n2cc(-c3cnc4[nH]cc(Cc5c(F)ccc(OC)c5F)c4c3)c(C#N)n2)CC1 [Embodiment 45] | 0.0091 µM | 0.351 µM |
| CCN1CCC(n2ccc(-c3cnc4[nH]cc(Cc5c(F)c(OC)nc(OC)c5F)c4c3)n2)CC1 [Embodiment 75] | 0.00326 µM | 0.0106 µM |
| COc1cc(OC)c(F)c(Cc2c[nH]c3ncc(-c4ccnc(N5CCN(C)CC5)c4)cc23)c1F [Embodiment 78] | 0.141 µM | 0.0098 µM |
| COc1cc(OC)c(F)c(Cc2n[nH]c3ncc(-c4cnn(C5CCNCC5)c4)cc23)c1F [Hydrochloride of embodiment 2] | 0.0078 µM | 0.137 µM |
| CCN1CCC(n2cc(-c3cnc4[nH]nc(Cc5c(F)c(OC)cc(OC)c5F)c4c3)cn2)CC1 [Hydrochloride of embodiment 3] | 0.0761 µM | 0.148 µM |
| CCN1CCC(n2cc(-c3cnc4[nH]nc(Cc5c(F)ccc(OC)c5F)c4c3)cn2)CC1 [Hydrochloride of embodiment 4] | 0.177 µM | 0.799 µM |
| COc1ccc(F)c(Cc2c[nH]c3ncc(-c4cn(C5CCNCC5)nc4C)cc23)c1F [Hydrochloride of embodiment 36] | 0.0273 µM | 0.684 µM |
| CCN1CCC(n2cc(-c3cnc4[nH]cc(Cc5c(F)c(OC)cc(OC)c5F)c4c3)c(C)n2)CC1 [Hydrochloride of embodiment 37] | 0.033 µM | 0.0524 µM |
| COc1cc(OC)c(F)c(Cc2c[nH]c3ncc(-c4cn(C5CCN(C)CC5)nc4C#N)cc23)c1F [Hydrochloride of embodiment 43] | 0.0571 µM | 0.0617 µM |
| CCN1CCC(c2cncc(-c3cnc4[nH]cc(Cc5c(F)c(OC)cc(OC)c5F)c4c3)n2)CC1 [Hydrochloride of embodiment 65] | 0.135 µM | 0.0027 µM |
| COc1cc(OC)c(F)c(Cc2c[nH]c3ncc(-c4cnn(CCNC(C)C)c4)cc23)c1F [Hydrochloride of embodiment 68] | 0.0535 µM | 0.01 µM |
| COc1cc(OC)c(F)c(Cc2c[nH]c3ncc(-c4cnn(CCCNC(C)C)c4)cc23)c1F [Hydrochloride of embodiment 72] | 0.0708 µM | 0.0531 µM |
| CCN1CCC(n2cc(-c3cnc4[nH]c(C)c(Cc5c(F)c(OC)cc(OC)c5F)c4c3)cn2)CC1 [Hydrochloride of embodiment 74] | 0.0042 µM | 0.0565 µM |
| COc1cc(OC)c(F)c(Cc2n[nH]c3ncc(-c4cnn(CCO)c4)cc23)c1F [Trifluoroacetate salt of embodiment 1] | 1.29 µM | 0.0397 µM |
| COc1cc(OC)c(F)c(Cc2c[nH]c3ncc(-c4cnn(C5CCNCC5)c4)nc23)c1F [Trifluoroacetate salt of embodiment 5] | 0.0472 µM | 0.0203 µM |
| COc1ccc(Cl)c(Cc2c[nH]c3ncc(-c4cnn(C5CCNCC5)c4)cc23)c1Cl [Trifluoroacetate salt of embodiment 10] | 0.0087 µM | 1.71 µM |
| COc1cc(OC)c(F)c(Cc2c[nH]c3ncc(-c4cnn(CCS(C)(=O)=O)c4)cc23)c1F [Trifluoroacetate salt of embodiment 76] | – | 0.00387 µM |
| COc1nc(OC)c(F)c(Cc2c[nH]c3ncc(-c4cnn(CCS(C)(=O)=O)c4)cc23)c1F [Trifluoroacetate salt of embodiment 77] | – | 0.00341 µM |
